In ChEMBL document CHEMBL5729489, “Naphthyridinone derivatives and their use in the treatment of arrhythmia” (2022) one finds IC50 data, which are given here for two molecules.

The assay has as its target T1, Kir3.1/Kir3.4 (Homo sapiens, UniProt P48544+P48549).
T1 sequence (P48549 whole entry): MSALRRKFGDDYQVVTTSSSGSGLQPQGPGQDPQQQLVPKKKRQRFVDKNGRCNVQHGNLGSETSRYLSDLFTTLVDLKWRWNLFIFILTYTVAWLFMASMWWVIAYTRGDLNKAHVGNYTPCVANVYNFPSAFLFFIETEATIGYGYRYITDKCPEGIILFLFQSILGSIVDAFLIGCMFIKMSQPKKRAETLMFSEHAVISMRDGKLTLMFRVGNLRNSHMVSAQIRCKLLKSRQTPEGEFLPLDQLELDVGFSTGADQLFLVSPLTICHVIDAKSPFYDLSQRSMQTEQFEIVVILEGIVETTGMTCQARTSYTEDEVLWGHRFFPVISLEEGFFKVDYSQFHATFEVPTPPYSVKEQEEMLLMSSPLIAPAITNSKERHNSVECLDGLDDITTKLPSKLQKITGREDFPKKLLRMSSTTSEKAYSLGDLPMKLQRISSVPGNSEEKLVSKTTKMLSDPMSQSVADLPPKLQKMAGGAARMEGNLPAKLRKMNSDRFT
T1 sequence (P48544 whole entry): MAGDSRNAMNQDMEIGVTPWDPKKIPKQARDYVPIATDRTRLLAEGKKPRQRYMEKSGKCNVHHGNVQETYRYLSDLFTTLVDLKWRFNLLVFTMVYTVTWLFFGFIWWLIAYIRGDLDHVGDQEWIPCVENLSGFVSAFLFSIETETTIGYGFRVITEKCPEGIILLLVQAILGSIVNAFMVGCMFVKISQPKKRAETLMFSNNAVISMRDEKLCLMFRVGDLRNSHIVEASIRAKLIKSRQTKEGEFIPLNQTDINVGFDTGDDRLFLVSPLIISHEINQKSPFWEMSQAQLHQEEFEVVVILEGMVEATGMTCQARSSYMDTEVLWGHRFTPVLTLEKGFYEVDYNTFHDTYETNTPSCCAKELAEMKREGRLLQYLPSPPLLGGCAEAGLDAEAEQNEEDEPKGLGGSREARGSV
The assay can be described thus: IonWorks Quattro system: Quattro is controlled using IonWorks v2 software to perform the following steps:a. Add 3.5 ul cells plus 3.5 ul external buffer to wells of Quattro Patch Plateb. Circulate amphotericin B and internal buffer onto cellsc. Apply the following voltage protocol: Pulse 1: 15 mV for 300 milliseconds (ms), followed by Pulse 2: −120 mV for 400 ms, then Pulse 3: −15 mV for 400 ms, and finally Pulse 4: −120 mV to 40 mV over 500 ms (this is a voltage ramp).d. Measure magnitude of inward potassium current at time point between 1200-1220 ms from start of Pulse 1 (i.e. during the voltage ramp phase).e. Add 3.5 ul of diluted compounds (or DMSO) to wells and repeat steps c-d (final compound concentrations are 50 uM to 0.1 uM, for potent compounds 0.5 uM to 0.01 uM and each concentration is tested in quadruplicate—i.e. in 4 separate wells).f. The difference between current magnitude pre vs. post-compound gives a measure of GIRK1/4 inhibition.7. Data analysis:IC50 values are calculated by plotting the percentage of current inhibition (normalized to the DMSO-only control) as a function of compound concentration using standard data analysis software.

As to `O=c1cc(CO)n(-c2c(Cl)cccc2Cl)c2c(Cl)cnc(OCC(CO)CO)c12`, the IC50 (usually the concentration needed to halve the response being measured) was 351 nM.
The result for `CS(=O)(=O)NCCOc1ncc(Cl)c2c1c(=O)cc(CO)n2-c1c(Cl)cccc1Cl` reads 99 nM.
